According to ChEMBL document CHEMBL1130353, “Conformational studies of paclitaxel analogs modified at the C-2' position in hydrophobic and hydrophilic solvent systems” (J Med Chem, 1997):

Columns and labels:
Format in all cases: functional, cell-based
EMT6 = assay: Inhibitory activity of compound against murine mammary adenocarcinoma (EMT-6) cell proliferation; conditions: Mus musculus
J774 = assay: Inhibitory activity of compound against murine macrophage-like (J774.2) cell proliferation; conditions: Mus musculus
OV-1063 = assay: Inhibitory activity of compound against human ovarian carcinoma (OV-1063) Cell proliferation

| SMILES | IC50 (EMT6) [nM] | IC50 (J774) [nM] | IC50 (OV-1063) [nM] |
| --- | --- | --- | --- |
| CC(=O)O[C@H]1C(=O)[C@@]2(C)[C@H]([C@H](OC(=O)c3ccccc3)[C@]3(O)C[C@H](OC(=O)[C@H](O)[C@@H](NC(=O)c4ccccc4)c4ccccc4)C(C)=C1C3(C)C)[C@]1(OC(C)=O)CO[C@@H]1C[C@@H]2O [PACLITAXEL] | 9 | 15 | 15 |
| CC(=O)O[C@H]1C(=O)[C@@]2(C)C([C@H](OC(=O)c3ccccc3)[C@]3(O)C[C@H](OC(=O)C[C@@H](NC(=O)c4ccccc4)c4ccccc4)C(C)=C1C3(C)C)[C@]1(OC(C)=O)COC1C[C@@H]2O (some centres undefined) | 300 | 400 | 450 |
| CO[C@@H](C(=O)O[C@H]1C[C@@]2(O)[C@@H](OC(=O)c3ccccc3)C3[C@]4(OC(C)=O)COC4C[C@H](O)[C@@]3(C)C(=O)[C@H](OC(C)=O)C(=C1C)C2(C)C)[C@@H](NC(=O)c1ccccc1)c1ccccc1 (some centres undefined) | 270 | 470 | 270 |
